Test results as given in US3954775A, “Thiazolo(5,4-f)quinoline-8-carboxylic acid derivatives” (Sumitomo Chemical Company, Limited, priority 1973, dated 1976).
Converted amounts (≈) assume the structure as drawn. Where two headings read alike, the source gives them in different places.

Experiments:
[1] = tested on: gram-positive bacteria such as Staphylococcus, Streptococcus, Diplococcus; assay: in vitro antibacterial activity on gram-positive bacteria, tube dilution method; format: cell-based; settings: result in words
Source text: (§1) The in vitro antibacterial activities were compared with 6-ethyl-2,3,6,9-tetrahydro-3-methyl-2,9-dioxothiazolo[5,4-f]quinoline-8-carboxylic acid (hereinafter Compound (D)) and nalidixic acid (hereinafter Compound (E)) using the tube dilution method.
The antibacterial spectrum of 3-benzyl-6-benzyloxy-2,3,6,9-tetrahydro-2,9-dioxothiazolo[5,4-f]quinoline- 8-carboxylic acid (hereinafter Compoud (B)) is different from the other compounds.

[2] = tested on: Bacillus subtilis PCI 219; assay: in vitro antibacterial activity, tube dilution method; format: cell-based; settings: PCI219, read-out: In vitro Antibacterial Activities
Source text: as §1

[3] = tested on: Staphylococcus albus 1200 A; assay: as above; format: cell-based; settings: read-out: In vitro Antibacterial Activities
Source text: as §1

[4] = tested on: Streptococcus hemolyticus A-1; assay: as above; format: cell-based; settings: Streptococcus pyogenes, A1, read-out: In vitro Antibacterial Activities
Source text: as §1

[5] = tested on: Staphylococcus aureus 209-P; assay: as above; format: cell-based; settings: read-out: In vitro Antibacterial Activities
Source text: as §1

Proteus vulgaris HX-19 = assay: as above; format: cell-based
Source text: as §1

[6] = tested on: Klebsiella pneumoniae PCI 602; assay: as above; format: cell-based
Source text: as §1

Sarcina lutea PCI 1001 = assay: as above; format: cell-based; settings: Micrococcus luteus, PCI1001, read-out: In vitro Antibacterial Activities
Source text: as §1

[7] = tested on: Diplococcus pneumoniae Newfeld; assay: as above; format: cell-based; settings: Streptococcus pneumoniae, read-out: In vitro Antibacterial Activities
Source text: as §1

Escherichia coli NIHJ = assay: as above; format: cell-based; settings: read-out: In vitro Antibacterial Activities
Source text: as §1

[8] = tested on: Pseudomonas aeruginosa 104; assay: as above; format: cell-based
Source text: as §1

[9] = tested on: Proteus mirabilis GN-2425; assay: as above; format: cell-based
Source text: as §1

gram-negative bacteria = assay: in vitro antibacterial activity on gram-negative bacteria, tube dilution method; format: cell-based; settings: for antibacterial activities on gram-negative bacteria: tube dilution method, result in words
Source text: as §1

Escherichia coli No. 34 = assay: in vivo protection of infected mice, oral; settings: for ED50: Escherichia coli, intraperitoneal infection, oral 1 hour and 6 hours after infection, E. coli No. 34
Description: (§2) The mice were inoculated intraperitoneally with the test organisms in 5% gastric mucin. The test compounds were suspended in 0.5% carboxymethylcellulose and administered orally 1 hour and 6 hours after infection.

Escherichia coli No. 37 = assay: in vivo protection of infected mice, oral; settings: intraperitoneal infection, oral 1 hour and 6 hours after infection, E. coli No. 37
Description: as §2

[10] = tested on: Proteus mirabilis GN-2425; assay: in vivo protection of infected mice, oral; settings: for ED50: Proteus mirabilis, GN2425, intraperitoneal infection, oral 1 hour and 6 hours after infection, P. mirabilis GN-2425
Description: as §2

[11] = urinary excretion in fasting rats after a single oral dose; format: in vivo; settings: single oral dose of 50 mg/kg
Description: Urinary excretions in fasting rats after a single oral dose of 50 mg/kg were also examined.
Compound (A) was excreted in the urine about 7 times faster than Compound (D). Recovery rates of Compound (A) in the urine were 2.0% after 24 hours.

[12] = preliminary toxicity in rats, 9 days oral; format: in vivo, female rats of Spraugue-Dewlty-SLC strain; settings: 1000 to 2000 mg/kg/day orally for 9 days
Description: To 6-week old female rats of Spraugue-Dewlty-SLC strain, 1000 to 2000 mg/kg/day of Compound A were administered orally for 9 days.

[13] = concentrations in serum of mice after a single oral dose; format: in vivo; settings: single oral dose of 50 mg/kg
Description: […] concentrations in serum of Compound (A) and Compound (D) were determined in the mice after a single oral dose of 50 mg/kg. […] The peak value for Compound (A) was about 12 times higher than that of Compound (D).

organism tested = assay: in vivo protection of infected mice, organisms tested overall; settings: oral, result in words
Description: as §2

[14] = prior art statement in words; cited from earlier work
[15] = prior art statement in words; cited from earlier work; remark: listed apart in the source
Aspergillus niger = assay: antifungal activity on Sabourand agar; format: cell-based; settings: read-out: minimum inhibitory concentration
Description: (§3) The activities of ethyl 2,9-dichlorothiazolo[5,4-f]quinoline-8-carboxylate-6-oxide (Compound (F)) on Trichophyton rubrum and Aspergillus niger were tested on Sabourand agar. […] The minimum inhibitory concentrations were 0.78 mcg/ml for Trichophyton rubrum and 25 mcg/ml for Aspergillus niger.

Trichophyton rubrum = assay: antifungal activity on Sabourand agar; format: cell-based; settings: read-out: minimum inhibitory concentration
Description: as §3

[16] = tested on: Trichophyton rubrum and Aspergillus niger; assay: antifungal activity on Sabourand agar, fungi tested overall; format: cell-based
Description: as §3

[17] = Staphylococcus aureus 209-P, tube dilution method
[18] = HX19, Proteus vulgaris HX-19, tube dilution method, read-out: In vitro Antibacterial Activities
[19] = PCI602, Klebsiella pneumoniae PCI 602, tube dilution method, read-out: In vitro Antibacterial Activities
[20] = Escherichia coli NIHJ, tube dilution method
[21] = Pseudomonas aeruginosa 104, tube dilution method, read-out: In vitro Antibacterial Activities
[22] = GN2425, Proteus mirabilis GN-2425, tube dilution method, read-out: In vitro Antibacterial Activities

Row | SMILES | MIC [2] | MIC [5, 17] | MIC (Proteus vulgaris HX-19; [18]) | MIC [6, 19] | MIC (Escherichia coli NIHJ; [20]) | MIC [8, 21] | MIC [9, 22] | antibacterial activities on gram-negative bacteria (gram-negative bacteria) | ED50 (Escherichia coli No. 34) | ED50 (Escherichia coli No. 37) | ED50 [10] | also measured
1 | O=C(O)c1cn(OCc2ccccc2)c2ccc3c(sc(=O)n3Cc3ccccc3)c2c1=O [B, 3-benzyl-6-benzyloxy-2,3,6,9-tetrahydro-2,9-dioxothiazolo[5,4-f]quinoline-8-carboxylic acid] | 0.78 mg/L (≈ 1.7 µM) | 1.56 mg/L (≈ 3.4 µM) | > 200 mg/L | > 200 mg/L | > 200 mg/L | > 200 mg/L | > 200 mg/L | – | – | – | – | inhibitory activity on gram-positive bacteria [1]: exhibited inhibitory activity on gram-positive bacteria; MIC [3]: 3.13 mg/L (≈ 6.83 µM); MIC [4]: 1.56 mg/L (≈ 3.4 µM); MIC (Sarcina lutea PCI 1001): 1.56 mg/L (≈ 3.4 µM); MIC [7]: 1.56 mg/L (≈ 3.4 µM)
2 | C=CCOn1cc(C(=O)O)c(=O)c2c3sc(=O)n(CC=C)c3ccc21 [C, 2,3,6,9-tetrahydro-3-allyl-6-allyloxy-2,9-dioxothiazolo[5,4-f]quinoline-8-carboxylic acid] | – | 50 mg/L (≈ 140 µM) | 3.13 mg/L (≈ 8.73 µM) | 200 mg/L (≈ 558 µM) | 100 mg/L (≈ 279 µM) | > 200 mg/L | > 200 mg/L | showed antibacterial activities on gram-negative bacteria | – | – | – | –
3 | COn1cc(C(=O)O)c(=O)c2c3sc(=O)n(C)c3ccc21 [Compound A, 2,3,6,9-Tetrahydro-6-methoxy-3-methyl-2,9-dioxothiazolo[5,4-f]quinoline-8-carboxylic acid] | 0.5 mg/L (≈ 1.63 µM) | 12.5 mg/L (≈ 40.8 µM) | 0.1 mg/L (≈ 0.326 µM) | 0.2 mg/L (≈ 0.653 µM) | 0.2 mg/L (≈ 0.653 µM) | 25 mg/L (≈ 81.6 µM) | 0.39 mg/L (≈ 1.27 µM) | showed antibacterial activities on gram-negative bacteria | 50 mg/kg | > 20 mg/kg | 14 mg/kg | effectiveness in protecting mice against E. Coli No. 34, compared with Compound (D) (Escherichia coli No. 34; oral, comparison in words): more effective than Compound (D); effectiveness in protecting mice against P. Mirabilis GN 2425, compared with Compound (D) ([10]; oral, comparison in words): more effective than Compound (D); dose excreted at 24 h ([11]; rat, urine, after 24 hours, read-out: Recovery rates in the urine): 2%; excretion in the urine, times faster than Compound (D) [11]: about 7 times; urinary concentration compared with Compound (D) ([11]; in words): superior to Compound (D); urinary recovery rate compared with Compound (D) ([11]; in words): superior to Compound (D); macroscopic examinations [12]: no abnormal findings were observed; symptoms [12]: No significant symptoms were observed; urinalysis (pH, protein, glucose, ketone bodies and occult blood) [12]: no abnormality was found; body weight ([12]; at all doses): did not decrease; body weight-gain ([12]; at all doses): slightly decreased; time at which serum levels reached a maximum [13]: within an hour; peak serum value relative to Compound (D) ([13]; times higher than Compound (D)): about 12 times; activity in vitro compared with Compound (D) (gram-negative bacteria; comparison in words): as active as Compound (D); activity in vitro compared with Compound (E) (gram-negative bacteria; comparison with nalidixic acid in words): more active than Compound (E)
4 | CCn1cc(C(=O)O)c(=O)c2c3sc(=O)n(C)c3ccc21 [Compound D, 6-ethyl-2,3,6,9-tetrahydro-3-methyl-2,9-dioxothiazolo[5,4-f]quinoline-8-carboxylic acid, reference compound] | 0.25 mg/L (≈ 0.821 µM) | 12.5 mg/L (≈ 41.1 µM) | 0.1 mg/L (≈ 0.329 µM) | 0.2 mg/L (≈ 0.657 µM) | 0.2 mg/L (≈ 0.657 µM) | > 200 mg/L | 0.78 mg/L (≈ 2.56 µM) | – | > 100 mg/kg | > 40 mg/kg | > 40 mg/kg | activities on the organism tested in vivo (organism tested): did not show activities on the organism tested; antibacterial activity in vivo [14]: does not possess a sufficient antibacterial activity in vivo; antibacterial activity in vitro [15]: noticeable antibacterial activity in vitro
5 | CCn1cc(C(=O)O)c(=O)c2ccc(C)nc21 [E, nalidixic acid, reference compound] | – | – | – | – | – | – | – | – | – | – | – | MIC ([5]; Staphylococcus aureus, 209P): 100 mg/L (≈ 431 µM); MIC (Proteus vulgaris HX-19; Proteus vulgaris, HX19, read-out: In vitro Antibacterial Activities): 0.78 mg/L (≈ 3.36 µM); MIC ([6]; Klebsiella pneumoniae, PCI602, read-out: In vitro Antibacterial Activities): 3.13 mg/L (≈ 13.5 µM); MIC (Escherichia coli NIHJ; Escherichia coli): 3.13 mg/L (≈ 13.5 µM); MIC ([8]; Pseudomonas aeruginosa, 104, read-out: In vitro Antibacterial Activities): > 200 mg/L; MIC ([9]; Proteus mirabilis, GN2425, read-out: In vitro Antibacterial Activities): 6.25 mg/L (≈ 26.9 µM)
6 | CCOC(=O)c1c[n+]([O-])c2ccc3nc(Cl)sc3c2c1Cl [F, ethyl 2,9-dichlorothiazolo[5,4-f]quinoline-8-carboxylate-6-oxide] | – | – | – | – | – | – | – | – | – | – | – | MIC (Aspergillus niger): 25 mg/L (≈ 72.8 µM); MIC (Trichophyton rubrum): 0.78 mg/L (≈ 2.27 µM); inhibitory activity on the fungi tested ([16]; Sabourand agar, result in words): exhibited inhibitory activity on the fungi tested; antifungal activity in vitro relative to griseofulvin ([16]; in vitro, comparison in words): twice as active than griseofulvin
